Experimental data: article PMC6567057, “Pharmacokinetic, metabolic stability, plasma protein binding and CYP450s inhibition/induction assessment studies of N-(2-pyridylmethyl)-2-hydroxiymethyl-1-pyrrolidinyl-4-(3-chloro-4-methoxy-benzylamino)-5-pyrimidine-carboxamide as potential type 5 phosphodiesterase inhibitors” (Animal Cells and Systems, 2019)

How the values were obtained:
[1] = target: T1, CYP2D6 (Homo sapiens, UniProt P10635); experiment: CYP isozyme inhibition in human liver microsomes; type: in vitro ADME; conditions: calculated from inhibition at 3 μM
T1 construct: tissue BD Gentest; host or cells: pooled human liver microsomes
T1 sequence (P10635 whole entry): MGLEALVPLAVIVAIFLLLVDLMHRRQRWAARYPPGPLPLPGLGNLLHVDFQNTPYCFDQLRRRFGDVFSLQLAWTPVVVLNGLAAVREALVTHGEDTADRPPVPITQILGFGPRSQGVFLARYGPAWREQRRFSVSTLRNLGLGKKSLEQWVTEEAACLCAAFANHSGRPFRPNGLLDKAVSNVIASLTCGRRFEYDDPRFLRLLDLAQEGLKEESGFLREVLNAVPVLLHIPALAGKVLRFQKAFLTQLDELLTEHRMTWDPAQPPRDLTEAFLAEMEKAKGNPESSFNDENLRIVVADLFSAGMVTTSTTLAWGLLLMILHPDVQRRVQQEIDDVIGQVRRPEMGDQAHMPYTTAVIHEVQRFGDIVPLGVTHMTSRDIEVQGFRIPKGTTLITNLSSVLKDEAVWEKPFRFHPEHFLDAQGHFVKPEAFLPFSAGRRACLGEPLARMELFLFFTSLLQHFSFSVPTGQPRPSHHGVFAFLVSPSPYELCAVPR
Procedure: (§1) The stock solutions of the probe substrates phenacetin (20.0 mM), diclofenac (20.0 mM), S-mephenytoin (30 mM), dextromethorphan (10.0 mM), midazolam (10.00 mM) and testosterone (50.0 mM) were prepared using methanol, while α-Naphtoflavone (3.0 mM), sulfaphenazole (3.0 mM), N-3-benzylnirvanol (3.0 mM), quinidine (3.0 mM), ketoconazole (3.0 mM) and NHPPC (10.0 mM) were prepared using DMSO, and diluted with phosphate buffer (PB, 100 mM, pH 7.4) before added into the incubation system. The organic solvents in the final incubate were no more than 0.20%. The incubation medium was 100 mM phosphate buffered saline, and the final incubation volume was 200 μL containing 25 pmol/mL human liver microsomes CYP enzyme, probe substrate, 1 mM NADPH and NHPPC at 3.00 μM. The reactions were initiated after 5 min pre-incubation at 37°C and were terminated by the addition of 400 μL ice-cold acetonitrile. All incubations were conducted in triplicate, and the samples were stored at −80°C until analysis. Calculation of IC50 was performed by using following equations, where C is concentration of test compounds.

[2] = target: T2, CYP2C9 (Homo sapiens, UniProt P11712); experiment: CYP isozyme inhibition in human liver microsomes; type: in vitro ADME; conditions: calculated from inhibition at 3 μM
T2 construct: tissue BD Gentest; host or cells: pooled human liver microsomes
T2 sequence (P11712 whole entry): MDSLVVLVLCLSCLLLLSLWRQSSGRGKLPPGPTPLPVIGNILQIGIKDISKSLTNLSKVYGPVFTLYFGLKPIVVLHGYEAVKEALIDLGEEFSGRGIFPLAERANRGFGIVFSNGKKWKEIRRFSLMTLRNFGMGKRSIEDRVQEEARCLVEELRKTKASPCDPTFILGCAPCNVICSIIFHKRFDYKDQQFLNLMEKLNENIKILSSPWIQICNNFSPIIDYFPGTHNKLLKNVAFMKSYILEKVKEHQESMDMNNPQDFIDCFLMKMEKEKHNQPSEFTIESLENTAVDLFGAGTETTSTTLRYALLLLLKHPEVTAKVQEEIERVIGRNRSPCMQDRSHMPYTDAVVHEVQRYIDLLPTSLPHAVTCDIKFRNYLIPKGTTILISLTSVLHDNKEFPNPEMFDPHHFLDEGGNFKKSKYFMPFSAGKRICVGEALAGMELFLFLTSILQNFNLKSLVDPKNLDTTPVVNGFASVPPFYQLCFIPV
Procedure: as §1

[3] = target: T3, CYP2C19 (Homo sapiens, UniProt P33261); experiment: CYP isozyme inhibition in human liver microsomes; type: in vitro ADME; conditions: calculated from inhibition at 3 μM
T3 construct: tissue BD Gentest; host or cells: pooled human liver microsomes
T3 sequence (P33261 whole entry): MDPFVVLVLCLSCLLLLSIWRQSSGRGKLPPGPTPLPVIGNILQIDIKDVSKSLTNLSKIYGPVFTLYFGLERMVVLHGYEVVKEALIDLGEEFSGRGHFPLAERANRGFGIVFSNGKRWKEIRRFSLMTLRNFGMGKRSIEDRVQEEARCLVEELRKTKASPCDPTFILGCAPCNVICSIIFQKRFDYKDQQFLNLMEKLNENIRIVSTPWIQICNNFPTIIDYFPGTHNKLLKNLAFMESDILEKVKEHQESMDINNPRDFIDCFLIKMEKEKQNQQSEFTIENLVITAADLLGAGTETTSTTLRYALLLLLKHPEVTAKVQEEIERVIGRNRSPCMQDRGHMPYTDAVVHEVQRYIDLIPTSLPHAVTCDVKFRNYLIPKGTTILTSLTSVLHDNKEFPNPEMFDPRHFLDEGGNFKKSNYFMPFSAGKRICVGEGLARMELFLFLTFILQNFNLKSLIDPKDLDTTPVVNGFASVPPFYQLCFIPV
Procedure: as §1

[4] = target: T4, CYP1A2 (Homo sapiens, UniProt P05177); experiment: CYP isozyme inhibition in human liver microsomes; type: in vitro ADME; conditions: calculated from inhibition at 3 μM
T4 construct: tissue BD Gentest; host or cells: pooled human liver microsomes
T4 sequence (P05177 1-516): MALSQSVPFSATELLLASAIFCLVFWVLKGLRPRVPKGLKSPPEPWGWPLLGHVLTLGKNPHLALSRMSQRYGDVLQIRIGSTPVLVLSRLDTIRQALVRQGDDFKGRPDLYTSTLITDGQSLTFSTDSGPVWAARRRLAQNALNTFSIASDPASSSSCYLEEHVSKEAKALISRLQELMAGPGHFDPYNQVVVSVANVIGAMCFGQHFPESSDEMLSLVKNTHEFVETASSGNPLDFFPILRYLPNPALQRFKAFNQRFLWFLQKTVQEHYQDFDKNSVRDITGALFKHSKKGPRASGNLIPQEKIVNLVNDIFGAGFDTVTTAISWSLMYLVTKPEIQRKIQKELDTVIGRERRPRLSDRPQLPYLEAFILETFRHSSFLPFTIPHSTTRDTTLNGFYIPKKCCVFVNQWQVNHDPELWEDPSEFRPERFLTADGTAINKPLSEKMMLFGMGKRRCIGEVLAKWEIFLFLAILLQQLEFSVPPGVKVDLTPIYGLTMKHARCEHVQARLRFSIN
Procedure: as §1

[5] = target: T5, CYP3A4 (Homo sapiens, UniProt P08684); experiment: CYP isozyme inhibition in human liver microsomes; type: in vitro ADME; conditions: calculated from inhibition at 3 μM
T5 construct: tissue BD Gentest; host or cells: pooled human liver microsomes
T5 sequence (P08684 whole entry): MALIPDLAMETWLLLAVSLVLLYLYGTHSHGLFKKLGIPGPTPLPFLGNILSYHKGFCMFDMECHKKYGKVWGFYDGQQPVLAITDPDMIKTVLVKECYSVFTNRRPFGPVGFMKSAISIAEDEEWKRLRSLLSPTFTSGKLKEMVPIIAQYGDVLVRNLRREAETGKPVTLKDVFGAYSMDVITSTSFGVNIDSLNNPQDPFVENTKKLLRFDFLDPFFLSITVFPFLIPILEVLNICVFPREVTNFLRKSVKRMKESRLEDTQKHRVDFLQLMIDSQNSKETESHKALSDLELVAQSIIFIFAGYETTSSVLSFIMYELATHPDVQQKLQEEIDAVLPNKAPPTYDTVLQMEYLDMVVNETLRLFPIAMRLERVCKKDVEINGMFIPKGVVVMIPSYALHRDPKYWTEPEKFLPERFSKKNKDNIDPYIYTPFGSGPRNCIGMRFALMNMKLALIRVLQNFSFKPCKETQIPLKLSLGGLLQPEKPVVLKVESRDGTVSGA
Procedure: as §1

[6] = Stability in plasma, 6 h incubation at 37°C (rat); type: in vitro ADME; conditions: Sprague-Dawley
Procedure: (§2) The phosphate buffer (100 mM) and sodium hydroxide solution (1.0 M) were prepared in deionized water. […] PPB was determined by equilibrium dialysis method. An aliquot (150 μL) of NHPPC spiked plasma and phosphate buffer (pH 7.4) was added into the donor side and the receiver side of each designated well. The plate was covered with adhesive sealing film to prevent evaporation and placed in a water-bath shaker kept at 37°C for 6 h with a rate of 50 rpm. […] At the end of 6 h, aliquots were taken from each side of each well (n = 3) and kept in a −20°C freezer prior to analysis. The stability, device recovery and PPB were calculated using the following equations: Remaining at 6 h (%)=C6h/C0h×100%, Device recovery (%)=CDonor+CReceiver/C6h×100%, PPB (%)=CDonor−CReceiver/CDonor×100%.

[7] = system: human plasma proteins; experiment: Plasma protein binding by equilibrium dialysis (human); type: in vitro ADME; conditions: human plasma, mean of 0.2 and 1 µM
Procedure: as §2

[8] = as above; type: in vitro ADME
Procedure: as §2

[9] = system: dog plasma proteins; experiment: Plasma protein binding by equilibrium dialysis (dog); type: in vitro ADME, Beagle dog; conditions: dog plasma, mean of 0.2 and 1 µM
Procedure: as §2

[10] = as above; type: in vitro ADME, Beagle dog; conditions: beagle
Procedure: as §2

[11] = system: rabbit model; experiment: Preliminary efficacy experiment of rabbit model in vivo; conditions: compared with avanafil, data not published
[12] = Stability in plasma, 6 h incubation at 37°C (human); type: in vitro ADME
Procedure: as §2

[13] = 0.2 µM, n = 3, read-out: Mean drug remaining %
[14] = 1 µM, n = 3, read-out: Mean drug remaining %
[15] = mean of 0.2 and 1 µM, read-out: Mean drug remaining %

IC50 [1]: > 100 µM | IC50 [2]: 21.9 µM | IC50 [3]: > 100 µM | IC50 [4]: > 100 µM | IC50 ([5]; CYP3A4 (midazolam based)): > 100 µM | IC50 ([5]; CYP3A4 (testosterone based)): > 100 µM | remaining at 6 h, 0.2 µM [6, 13]: 100 ± 1.93% | remaining at 6 h, 1 µM [6, 14]: 102 ± 1.26% | remaining at 6 h [6, 15]: 101 ± 1.01% | Mean PPB % [7]: 99.4 ± 0.13% | fraction unbound at 6 h, 0.2 µM ([8]; human, plasma, pH 7.4, human plasma, 0.2 µM, equilibrium dialysis 6 h, read-out: Mean PPB % (converted)): 0.007 | fraction unbound at 6 h, 1 µM ([8]; human, plasma, pH 7.4, human plasma, 1 µM, equilibrium dialysis 6 h, read-out: Mean PPB % (converted)): 0.005 | recovery at 6 h, 0.2 μM ([8]; pH 7.4, human plasma, equilibrium dialysis, n = 3, read-out: Mean device recovery %): 101.2 ± 0.02% | Mean PPB % [9]: 99.6 ± 0.26% | fraction unbound at 6 h, 0.2 µM ([10]; dog, plasma, pH 7.4, dog plasma, 0.2 µM, equilibrium dialysis 6 h, read-out: Mean PPB % (converted)): 0.008 | fraction unbound at 6 h, 1 µM ([10]; dog, plasma, pH 7.4, dog plasma, 1 µM, equilibrium dialysis 6 h, read-out: Mean PPB %): 0.001 ± 3.8e-06 | recovery at 6 h, 0.2 μM ([10]; pH 7.4, dog plasma, equilibrium dialysis, n = 3, read-out: Mean device recovery %): 95.7 ± 0.3% | remaining at 6 h, 0.2 µM [12, 13]: 99.8 ± 1.37% | remaining at 6 h, 1 µM [12, 14]: 102 ± 1.5% | remaining at 6 h [12, 15]: 101 ± 1.23%
Compound: COc1ccc(CNc2nc(N3CCC[C@H]3CO)ncc2C(=O)NCc2ccccn2)cc1Cl [NHPPC, N-(2-pyridylmethyl)-2-hydroxiymethyl-1-pyrrolidinyl-4-(3-chloro-4-methoxy-benzylamino)-5-pyrimidine-carboxamide]
preliminary efficacy [11]: stronger than avanafil
